Laboratory results: US7118759B2 (priority 2001, dated 2006)
Where two headings read alike, the source gives them in different places.

How the values were obtained:
Format in all cases: cell-based, Staphylococcus aureus
S. aureus (MN8) = conditions: for Reduction of Toxin (%): vs methanol control
S. aureus FRI-1187 = system: S. aureus FRI-1187
S. aureus FRI-1169 = system: S. aureus FRI-1169

Row | SMILES | TSST-1 produced when compared to the control (S. aureus (MN8)) | ELISA: TSST-1 ng/OD unit (S. aureus (MN8); 2 μg/mL test compound, 24 hours) [ng/OD unit] | Reduction of Toxin (%) (S. aureus (MN8); 2 μg/mL test compound) | TSST-1 produced when compared to the control (S. aureus FRI-1187) | ELISA: TSST-1 ng/OD unit (S. aureus FRI-1187; 0.5 ug/mL triclosan) [ng/OD unit] | TSST-1 produced when compared to the control (S. aureus FRI-1169) | ELISA: TSST-1 ng/OD unit (S. aureus FRI-1169; 0.5 μg/mL triclosan) [ng/OD unit] | Reduction of Toxin (%) (S. aureus (MN8); 0.01 μg/mL test compound)
1 | Oc1c(Cl)cc(Cl)c(Cl)c1Cc1c(O)c(Cl)cc(Cl)c1Cl [Hexachlorophene, hexachlorophene] | significantly less TSST-1 | 330 | 68 |  |  |  |  | 
2 | Oc1cc(Cl)ccc1Oc1ccc(Cl)cc1Cl [Triclosan, triclosan] | significantly less TSST-1 |  |  | less TSST-1 | 95 | less TSST-1 | 40 | 88
